In PubChem BioAssay AID1918954 (Molecular Pharmacology Branch, DTP, NCI, 2023):
“And” between values parts separate entries of the source, which are not always exact repeats. Identical values can stand only once.

Tested on: MDA-MB-468 complex spheroids with HUVEC/MSC, viability
Experiment: Anticancer human tumor MDA-MB-468 cell line growth inhibition;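 further: spheroids exposed to agents for seven days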;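 on viability, T/C: 100% = DMSO vehicle control viability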
Conditions: for viability, T/C: stronger effect = lower value
Outline: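 Complex spheroids of tumor cells with HUVEC and human MSCs, exposed to iadademstat combined with other agents. Each agent tested in half-log steps from near clinical Cmax (else 10 microM top), DMSO ≤0.25%.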

[1] = curve of first compound, second compound 0.1 µM
[2] = curve of first compound, second compound 0.316 µM
[3] = curve of first compound, second compound 1 µM
[4] = curve of first compound, second compound 3.16 µM
[5] = curve of first compound, second compound 10 µM
[6] = second compound 0.1 µM, first compound 0.00949 µM
[7] = second compound 0.1 µM, first compound 0.03 µM
[8] = second compound 0.1 µM, first compound 0.0949 µM
[9] = second compound 0.1 µM, first compound 0.3 µM
[10] = second compound 0.316 µM, first compound 0.00949 µM
[11] = second compound 0.316 µM, first compound 0.03 µM
[12] = second compound 0.316 µM, first compound 0.0949 µM
[13] = second compound 0.316 µM, first compound 0.3 µM
[14] = second compound 1 µM, first compound 0.00949 µM
[15] = second compound 1 µM, first compound 0.03 µM
[16] = second compound 1 µM, first compound 0.0949 µM
[17] = second compound 1 µM, first compound 0.3 µM
[18] = second compound 3.16 µM, first compound 0.00949 µM
[19] = second compound 3.16 µM, first compound 0.03 µM
[20] = second compound 3.16 µM, first compound 0.0949 µM
[21] = second compound 3.16 µM, first compound 0.3 µM
[22] = second compound 10 µM, first compound 0.00949 µM
[23] = second compound 10 µM, first compound 0.03 µM
[24] = second compound 10 µM, first compound 0.0949 µM
[25] = second compound 10 µM, first compound 0.3 µM
[26] = second compound 0.1 µM, first compound 0.000316 µM
[27] = second compound 0.1 µM, first compound 0.001 µM
[28] = second compound 0.1 µM, first compound 0.00316 µM
[29] = second compound 0.1 µM, first compound 0.01 µM
[30] = second compound 0.1 µM, first compound 0.0316 µM
[31] = second compound 0.1 µM, first compound 0.1 µM
[32] = second compound 0.316 µM, first compound 0.000316 µM
[33] = second compound 0.316 µM, first compound 0.001 µM
[34] = second compound 0.316 µM, first compound 0.00316 µM
[35] = second compound 0.316 µM, first compound 0.01 µM
[36] = second compound 0.316 µM, first compound 0.0316 µM
[37] = second compound 0.316 µM, first compound 0.1 µM
[38] = second compound 1 µM, first compound 0.000316 µM
[39] = second compound 1 µM, first compound 0.001 µM
[40] = second compound 1 µM, first compound 0.00316 µM
[41] = second compound 1 µM, first compound 0.01 µM
[42] = second compound 1 µM, first compound 0.0316 µM
[43] = second compound 1 µM, first compound 0.1 µM
[44] = second compound 3.16 µM, first compound 0.000316 µM
[45] = second compound 3.16 µM, first compound 0.001 µM
[46] = second compound 3.16 µM, first compound 0.00316 µM
[47] = second compound 3.16 µM, first compound 0.01 µM
[48] = second compound 3.16 µM, first compound 0.0316 µM
[49] = second compound 3.16 µM, first compound 0.1 µM
[50] = second compound 10 µM, first compound 0.000316 µM
[51] = second compound 10 µM, first compound 0.001 µM
[52] = second compound 10 µM, first compound 0.00316 µM
[53] = second compound 10 µM, first compound 0.01 µM
[54] = second compound 10 µM, first compound 0.0316 µM
[55] = second compound 10 µM, first compound 0.1 µM

Structure (SMILES): CCN(c1cc(-c2ccc(CN3CCOCC3)cc2)cc(C(=O)NCc2c(C)cc(C)[nH]c2=O)c1C)C1CCOCC1
- viability, T/C (compound 0.00949 µM): 81.6% and 96.5%
- viability, T/C (compound 0.03 µM): 100% and 76.8%
- viability, T/C (compound 0.0949 µM): 118% and 74.4%
- viability, T/C (compound 0.3 µM): 92.3% and 50.2%
- viability, T/C (compound 0.949 µM): 92.2% and 44%
- viability, T/C (compound 3 µM): 75.7% and 24.5%
- IC50 (curve of compound): > 3000 nM and 441 nM

Structure (SMILES): Nc1ncn(C2CC(O)C(CO)S2)c(=O)n1 (configuration not stated) + NC1CC1c1ccc(-c2cccc(O)c2)cc1
- IC50 [1]: 21.2 nM
- IC50 [2]: 18.9 nM
- IC50 [3]: 11.8 nM
- IC50 [4]: 10.7 nM
- IC50 [5]: 3.83 nM
- viability, T/C (second compound 0.1 µM, first compound 0.000949 µM): 104%
- viability, T/C (second compound 0.1 µM, first compound 0.003 µM): 87.9%
- viability, T/C [6]: 56.7%
- viability, T/C [7]: 47.2%
- viability, T/C [8]: 31.8%
- viability, T/C [9]: 19.5%
- viability, T/C (second compound 0.316 µM, first compound 0.000949 µM): 84%
- viability, T/C (second compound 0.316 µM, first compound 0.003 µM): 77.1%
- viability, T/C [10]: 57.8%
- viability, T/C [11]: 45.1%
- viability, T/C [12]: 26.3%
- viability, T/C [13]: 16.4%
- viability, T/C (second compound 1 µM, first compound 0.000949 µM): 80.8%
- viability, T/C (second compound 1 µM, first compound 0.003 µM): 76%
- viability, T/C [14]: 49.6%
- viability, T/C [15]: 35.4%
- viability, T/C [16]: 23.9%
- viability, T/C [17]: 13.9%
- viability, T/C (second compound 3.16 µM, first compound 0.000949 µM): 90.4%
- viability, T/C (second compound 3.16 µM, first compound 0.003 µM): 81.3%
- viability, T/C [18]: 47.7%
- viability, T/C [19]: 33%
- viability, T/C [20]: 22.5%
- viability, T/C [21]: 13.5%
- viability, T/C (second compound 10 µM, first compound 0.000949 µM): 62.5%
- viability, T/C (second compound 10 µM, first compound 0.003 µM): 53.6%
- viability, T/C [22]: 39.1%
- viability, T/C [23]: 29.9%
- viability, T/C [24]: 19.8%
- viability, T/C [25]: 13.8%

Structure (SMILES): Cn1ncnc1C1c2n[nH]c(=O)c3cc(F)cc(c23)NC1c1ccc(F)cc1 (configuration not stated) + NC1CC1c1ccc(-c2cccc(O)c2)cc1
- IC50 [1]: 87.7 nM
- IC50 [2]: > 100 nM
- IC50 [3]: > 100 nM
- IC50 [4]: 12 nM
- IC50 [5]: 2.6 nM
- viability, T/C [26]: 98.1%
- viability, T/C [27]: 102%
- viability, T/C [28]: 72.5%
- viability, T/C [29]: 73.1%
- viability, T/C [30]: 64.6%
- viability, T/C [31]: 46.7%
- viability, T/C [32]: 120%
- viability, T/C [33]: 79.1%
- viability, T/C [34]: 67.4%
- viability, T/C [35]: 60.9%
- viability, T/C [36]: 52.8%
- viability, T/C [37]: 46%
- viability, T/C [38]: 93.2%
- viability, T/C [39]: 112%
- viability, T/C [40]: 67%
- viability, T/C [41]: 57.6%
- viability, T/C [42]: 61.9%
- viability, T/C [43]: 42.4%
- viability, T/C [44]: 92.8%
- viability, T/C [45]: 85.5%
- viability, T/C [46]: 74.5%
- viability, T/C [47]: 48.2%
- viability, T/C [48]: 50.6%
- viability, T/C [49]: 39.1%
- viability, T/C [50]: 74.1%
- viability, T/C [51]: 67.7%
- viability, T/C [52]: 45.9%
- viability, T/C [53]: 33.5%
- viability, T/C [54]: 34.8%
- viability, T/C [55]: 26.3%

Structure (SMILES): COc1cc(C2c3cc4c(cc3C(OC3OC5COC(C)OC5C(O)C3O)C3COC(=O)C23)OCO4)cc(OC)c1O (configuration not stated) + NC1CCC(NC2CC2c2ccccc2)CC1
- IC50 [1]: 99.2 nM
- IC50 [2]: 93.1 nM
- IC50 [3]: 89.2 nM
- IC50 [4]: 76.6 nM
- IC50 [5]: 52.6 nM
- viability, T/C [6]: 83.6%
- viability, T/C [7]: 91.3%
- viability, T/C [8]: 51.6%
- viability, T/C [9]: 13.8%
- viability, T/C (second compound 0.1 µM, first compound 0.949 µM): 10.8%
- viability, T/C (second compound 0.1 µM, first compound 3 µM): 8.8%
- viability, T/C [10]: 82.6%
- viability, T/C [11]: 72.3%
- viability, T/C [12]: 51.2%
- viability, T/C [13]: 14.3%
- viability, T/C (second compound 0.316 µM, first compound 0.949 µM): 12.5%
- viability, T/C (second compound 0.316 µM, first compound 3 µM): 9.23%
- viability, T/C [14]: 90.7%
- viability, T/C [15]: 77.2%
- viability, T/C [16]: 50.8%
- viability, T/C [17]: 13.8%
- viability, T/C (second compound 1 µM, first compound 0.949 µM): 12.8%
- viability, T/C (second compound 1 µM, first compound 3 µM): 8.57%
- viability, T/C [18]: 67.6%
- viability, T/C [19]: 68.2%
- viability, T/C [20]: 45.9%
- viability, T/C [21]: 15.5%
- viability, T/C (second compound 3.16 µM, first compound 0.949 µM): 15.3%
- viability, T/C (second compound 3.16 µM, first compound 3 µM): 8.59%
- viability, T/C [22]: 55.5%
- viability, T/C [23]: 64.5%
- viability, T/C [24]: 39.5%
- viability, T/C [25]: 17.1%
- viability, T/C (second compound 10 µM, first compound 0.949 µM): 17.2%
- viability, T/C (second compound 10 µM, first compound 3 µM): 11%

Structure (SMILES): CC(C)CC(NC(=O)C(Cc1ccccc1)NC(=O)c1cnccn1)B(O)O (configuration not stated) + NC1CCC(NC2CC2c2ccccc2)CC1
- IC50 [1]: 0.699 nM
- IC50 [2]: 0.592 nM
- IC50 [3]: 0.642 nM
- IC50 [4]: 0.646 nM
- IC50 [5]: 0.562 nM
- viability, T/C [26]: 102%
- viability, T/C [27]: 26.4%
- viability, T/C [28]: 1.52%
- viability, T/C [29]: 0.94%
- viability, T/C [30]: 1.06%
- viability, T/C [31]: 1.23%
- viability, T/C [32]: 86.6%
- viability, T/C [33]: 19.5%
- viability, T/C [34]: 0.94%
- viability, T/C [35]: 1.12%
- viability, T/C [36]: 1%
- viability, T/C [37]: 0.68%
- viability, T/C [38]: 94.1%
- viability, T/C [39]: 22.2%
- viability, T/C [40]: 0.63%
- viability, T/C [41]: 1.08%
- viability, T/C [42]: 1.55%
- viability, T/C [43]: 0.88%
- viability, T/C [44]: 91.9%
- viability, T/C [45]: 24.5%
- viability, T/C [46]: 1.11%
- viability, T/C [47]: 1%
- viability, T/C [48]: 0.77%
- viability, T/C [49]: 1.37%
- viability, T/C [50]: 83.9%
- viability, T/C [51]: 16.1%
- viability, T/C [52]: 1.08%
- viability, T/C [53]: 0.25%
- viability, T/C [54]: 1.63%
- viability, T/C [55]: 2.35%
